From ChEMBL document CHEMBL1201862, “PubChem BioAssay data set” (2004)
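Cultured in 96-well plates, cells were exposed to test compound for 48 hours across five concentrations. At the GI50, growth is halved.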 The source made the active and inactive calls. No stated cut-off is given here; in the data, active = GI50 up to about 1.1 µM and inactive = higher.

Tests used:
Experiment in all cases: NCI-60 cell line screen, 48 h
[1] = tested on: Hs-578T
[2] = tested on: MDA-N
[3] = tested on: OVCAR-5
[4] = tested on: A549
[5] = tested on: ACHN
[6] = tested on: M14
[7] = tested on: SK-MEL-28
[8] = tested on: NCI-H460
[9] = tested on: DU-145
[10] = tested on: HOP-92
[11] = tested on: RXF 393
[12] = tested on: HL-60
[13] = tested on: A498
[14] = tested on: KM12
[15] = tested on: SK-OV-3
[16] = tested on: CCRF-CEM
[17] = tested on: MOLT-4
[18] = tested on: RPMI-8226
[19] = tested on: SF-295
[20] = tested on: EKVX

Measured: GI50

CCOC(=O)C1(C#N)C2(C#N)C(N)=NC(ON=C(C)C)(ON=C(C)C)C12C#N (configuration not stated)
inactive: [1] > 100 µM | [2] > 100 µM | [3] > 100 µM | [4] > 100 µM | [5] > 100 µM | [6] > 100 µM | [7] > 100 µM | [8] > 100 µM | [9] > 100 µM | [10] > 100 µM | [11] > 100 µM | [12] > 100 µM | [13] > 100 µM | [14] > 100 µM | [15] > 100 µM | [16] > 100 µM | [17] > 100 µM | [18] > 100 µM | [19] > 100 µM | [20] > 100 µM

N#CC1=C(N)OC2=C(CSc3ccccc32)C1c1ccc(Br)cc1 (configuration not stated)
inactive: [1] 28.1 µM | [2] 3.32 µM | [3] 11.6 µM | [4] 7.08 µM | [6] 9.27 µM | [7] 12.9 µM | [8] 12.1 µM | [9] 20 µM | [10] 6.78 µM | [11] 4.04 µM | [12] 2.59 µM | [13] 13 µM | [14] 4.37 µM | [15] 13.4 µM | [16] 2.72 µM | [17] 2.84 µM | [18] 2.07 µM | [19] 12.4 µM | [20] 2.81 µM

O=[N+]([O-])c1c2nc3n(c2cc2c1nc1n2CCC1)CCC3
inactive: [1] > 100 µM | [2] > 100 µM | [3] > 100 µM | [4] > 100 µM | [5] > 100 µM | [6] > 100 µM | [7] > 100 µM | [8] > 100 µM | [9] > 100 µM | [10] > 100 µM | [11] > 100 µM | [12] > 100 µM | [13] > 100 µM | [14] > 100 µM | [15] > 100 µM | [16] > 100 µM | [17] > 100 µM | [18] > 100 µM | [19] > 100 µM | [20] > 100 µM

CCOC(=O)N/N=C(\CC)NO
inactive: [1] > 100 µM | [2] > 100 µM | [3] > 100 µM | [4] > 100 µM | [5] > 100 µM | [7] > 100 µM | [8] > 100 µM | [9] > 100 µM | [10] > 100 µM | [11] > 100 µM | [12] > 100 µM | [13] > 100 µM | [14] > 100 µM | [15] > 100 µM | [16] > 100 µM | [17] > 100 µM | [18] > 100 µM | [20] > 100 µM

COc1ccc(/C(Cl)=C(\C=O)c2ccc(OC)c(OC)c2)cc1OC
inactive: [1] > 100 µM | [2] > 100 µM | [3] > 45.6 µM | [4] > 100 µM | [5] > 100 µM | [6] > 100 µM | [7] > 94.6 µM | [8] 91.4 µM | [9] > 100 µM | [10] > 100 µM | [11] 37.2 µM | [12] 22.2 µM | [13] > 94.4 µM | [14] 32.5 µM | [15] > 100 µM | [16] > 83.9 µM | [17] > 100 µM | [18] 70.3 µM | [19] 30.1 µM | [20] > 100 µM

Nc1ncnc2c1ncn2C1OC(CO)=CC1O (configuration not stated)
inactive: [1] > 37.5 µM | [2] > 37.5 µM | [3] > 37.5 µM | [4] > 37.5 µM | [5] > 37.5 µM | [6] > 37.5 µM | [7] > 37.5 µM | [8] > 37.5 µM | [9] > 37.5 µM | [10] > 37.5 µM | [11] > 37.5 µM | [12] > 37.5 µM | [13] > 37.5 µM | [14] > 37.5 µM | [15] > 37.5 µM | [16] > 37.5 µM | [17] > 37.5 µM | [18] > 37.5 µM | [19] > 37.5 µM | [20] > 37.5 µM
